Consider 5 compounds from patent US4988688A, “4-(N-substituted amino)-2-butynyl-1-ureas and thioureas and derivatives thereof as centrally acting muscarinic agents” (Warner-Lambert Company, priority 1989, dated 1991).

Assay [1] has as its system human SK-N-SH cells bearing muscarinic binding sites.
Description: In the Muscarinic Induced Inositol Phosphate Accumulation Assay (MIPA) human SK-N-SH cells bearing muscarinic binding sites are incubated with the test compound. The production of inositol phosphates is then measured. Stimulation of inositol phosphate turnover reflects the degree of muscarinic agonist activity of the test compound. The concentration of test compound required to produce a response 50% of the maximum is then determined.
Assay [2] has as its system central muscarinic antagonist site. Format: binding, rat. The settings on record: read-out: RQNB (1 μM) IC50.
Assay [3] deals with central muscarinic agonist site. Description: Receptor [^3H]Cis-methyldioxalane Assay (RCMD). To be noted: rat cerebral cortex tissue; radiolabeled cis-methyldioxalane; head prints (0.1 μm). Format: binding.
The subject of another assay is mice. To be noted: cited from earlier work.
Assay [4] relates to age-related cognitive deficits. To be noted: increasing acetylcholine release from presynaptic nerve terminals; cited from earlier work.
The test system of assay [5] is aged humans and nonhuman primates. The settings on record: aged humans and nonhuman primates with decreased cognition; acetylcholinesterase inhibitors such as physostigmine; cited from earlier work.

SMILES strings stand for the structures. Counter-ions that a name gives are not always drawn. Like-named read-outs stand apart in the source and are kept apart here.

On to `CNC(=O)N(C)CC#CCN1CCCC1` [Example 1a, N,N'-Dimethyl-N-4-(1-pyrrolidinyl)-2-butynyl]-urea, hydrochloride], for which, in assay [1], the “MIPA (ED50)” value is given as 2.91 × 10^-5. Besides, the IC50 (in general, the concentration needed to halve the response being measured) was 8.79 µM in assay [2] and 0.0434 µM in assay [3].

Regarding `CNC(=O)N(C)CC#CCN(C)C.Cl` [Example 2, N-[4-(Dimethylamino)-2-butynyl]-N,N'-dimethyl-urea, monohydrochloride], the “MIPA (ED50)” value in assay [1] was 1.84 × 10^-5. Also, the 50% inhibitory concentration (IC50) came to 100 µM in assay [2] (rat cerebral cortex tissue, radiolabeled quinuclidinyl benzilate, head prints (1 μM)) and 0.275 µM in assay [3].

As to `C(#CCN1CCCC1)CN1CCCC1` [tremorine, 1,4-dipyrrolidino-2-butyne], the “tremor of the head and limbs and its duration” value in the assay on mice is “profound tremor of the head and limbs lasting for more than one hour”.

For `Nc1ccncc1N` [3,4-diaminopyridine], the “effect on age-related cognitive deficits” value in assay [4] is “ameliorate age-related cognitive deficits”.

Take `CNC(=O)Oc1ccc2c(c1)[C@]1(C)CCN(C)[C@@H]1N2C` [physostigmine]: in assay [5], the memory improvement entry is “improved memory”.
